The supplement of paper PMC10307832

How the values were obtained:
Assay in all cases: relative viability (nuclei count vs DMSO), 5 days (fraction); higher = more cells survive
Trametinib + Linsitinib = compound: CC(=O)Nc1cccc(-n2c(=O)n(C3CC3)c(=O)c3c(Nc4ccc(I)cc4F)n(C)c(=O)c(C)c32)c1 [Trametinib] + C[C@]1(O)C[C@@H](c2nc(-c3ccc4ccc(-c5ccccc5)nc4c3)c3c(N)nccn32)C1 [Linsitinib] (partner 1 µM)
Summary of the method: (§1)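 Dosing by pin tool came one day after lung cancer cell lines were seeded in 1536-well plates, using either one drug or a fixed anchor-drug dose plus five library-drug doses (not always all listed) in √10 steps. After 5 days, nuclei were counted on 4× images. Relative viability is treated-well nuclei count divided by vehicle-well nuclei count, and values are medians of duplicate plates.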

Trametinib + Crizotinib = compound: CC(=O)Nc1cccc(-n2c(=O)n(C3CC3)c(=O)c3c(Nc4ccc(I)cc4F)n(C)c(=O)c(C)c32)c1 [Trametinib] + C[C@@H](Oc1cc(-c2cnn(C3CCNCC3)c2)cnc1N)c1c(Cl)ccc(F)c1Cl [Crizotinib] (partner 1 µM)
Summary of the method: as §1

Trametinib + Decitabine = compound: CC(=O)Nc1cccc(-n2c(=O)n(C3CC3)c(=O)c3c(Nc4ccc(I)cc4F)n(C)c(=O)c(C)c32)c1 [Trametinib] + Nc1ncn([C@H]2C[C@H](O)[C@@H](CO)O2)c(=O)n1 [Decitabine] (partner 2 µM)
Summary of the method: as §1

Trametinib + Foretinib = compound: CC(=O)Nc1cccc(-n2c(=O)n(C3CC3)c(=O)c3c(Nc4ccc(I)cc4F)n(C)c(=O)c(C)c32)c1 [Trametinib] + COc1cc2c(Oc3ccc(NC(=O)C4(C(=O)Nc5ccc(F)cc5)CC4)cc3F)ccnc2cc1OCCCN1CCOCC1 [Foretinib] (partner 0.25 µM)
Summary of the method: as §1

Cell Line	relative viability (Trametinib + Linsitinib; first compound 0.0025 µM)	relative viability (Trametinib + Linsitinib; first compound 0.007906 µM)	relative viability (Trametinib + Linsitinib; first compound 0.025 µM)	relative viability (Trametinib + Linsitinib; first compound 0.07906 µM)	relative viability (Trametinib + Linsitinib; first compound 0.25 µM)	relative viability (Trametinib + Crizotinib; first compound 0.0025 µM)	relative viability (Trametinib + Crizotinib; first compound 0.007906 µM)	relative viability (Trametinib + Crizotinib; first compound 0.025 µM)	relative viability (Trametinib + Crizotinib; first compound 0.07906 µM)	relative viability (Trametinib + Crizotinib; first compound 0.25 µM)	relative viability (Trametinib + Decitabine; first compound 0.0025 µM)	relative viability (Trametinib + Decitabine; first compound 0.007906 µM)	relative viability (Trametinib + Decitabine; first compound 0.025 µM)	relative viability (Trametinib + Decitabine; first compound 0.07906 µM)	relative viability (Trametinib + Decitabine; first compound 0.25 µM)	relative viability (Trametinib + Foretinib; first compound 0.0025 µM)	relative viability (Trametinib + Foretinib; first compound 0.007906 µM)	relative viability (Trametinib + Foretinib; first compound 0.025 µM)	relative viability (Trametinib + Foretinib; first compound 0.07906 µM)	relative viability (Trametinib + Foretinib; first compound 0.25 µM)
NCI-H23	0.438	0.356	0.277	0.313	0.226	0.389	0.428	0.34	0.387	0.263	0.291	0.297	0.281	0.269	0.258	0.874	0.675	0.549	0.513	0.343
LOU-NH91	0.864	0.801	0.771	0.735	0.526	0.722	0.667	0.714	0.636	0.501	0.804	0.776	0.734	0.71	0.544	0.909	0.805	0.733	0.757	0.549
NCI-H2009	0.916	0.717	0.483	0.472	0.334	1.08	0.586	0.336	0.301	0.266	0.306	0.303	0.247	0.273	0.267	1.05	0.708	0.351	0.279	0.302
NCI-H358	0.587	0.438	0.399	0.332	0.28	0.526	0.349	0.276	0.243	0.194	0.2	0.191	0.142	0.209	0.155	0.49	0.302	0.264	0.18	0.166
NCI-H2126	0.617	0.613	0.422	0.546	0.454	1.01	0.959	0.788	0.832	0.749	0.574	0.558	0.514	0.535	0.523	1.01	1.05	0.994	1	0.816
NCI-H1437	0.996	0.412	0.294	0.209	0.176	0.952	0.883	0.572	0.373	0.472	0.574	0.471	0.557	0.394	0.431	1.24	1.06	0.754	0.664	0.588
SK-LU-1	1.18	0.965	0.888	0.778	0.443	0.976	0.87	0.775	0.619	0.371	0.585	0.632	0.473	0.431	0.455	0.649	0.697	0.505	0.406	0.208
NCI-H838	0.912	0.867	–	0.754	0.528	0.786	0.689	–	0.572	0.411	0.466	0.416	0.457	0.448	0.403	0.921	0.889	0.795	0.797	0.638
NCI-H1755	0.847	0.82	0.764	0.847	0.801	0.807	0.789	0.706	0.772	0.691	0.72	0.703	0.679	0.678	0.594	0.856	0.863	0.82	0.809	0.787
NCI-H1915	1.14	1.05	0.671	0.674	0.278	0.872	0.756	0.568	0.333	0.231	0.268	0.248	0.24	0.227	0.188	1.11	0.781	0.538	0.596	0.298
NCI-H2347	0.93	0.653	0.404	0.431	0.445	0.698	0.476	0.252	0.464	0.433	0.521	0.514	0.395	0.358	0.397	1.08	0.43	0.31	0.46	0.387
HARA	0.757	0.736	0.673	0.535	0.237	0.9	0.907	0.807	0.638	0.336	0.606	0.469	0.474	0.421	0.422	0.834	0.555	0.58	0.515	0.232
NCI-H2085	0.812	0.688	0.607	0.728	0.737	0.793	0.69	0.698	0.688	0.63	0.544	0.558	0.552	0.629	0.61	0.695	0.732	0.625	0.587	0.626
NCI-H650	1.08	0.93	0.861	0.787	0.456	0.787	0.736	0.672	0.668	0.339	0.346	0.294	0.345	0.301	0.261	1.1	1.17	1.1	1.17	0.839
NCI-H727	0.21	0.164	0.104	0.144	0.155	0.381	0.278	0.279	0.195	0.206	0.818	0.619	0.541	0.431	0.453	0.455	0.269	0.359	0.32	0.238
NCI-H1993	0.774	0.752	0.719	0.723	0.745	0.796	0.716	0.797	0.674	0.662	0.556	0.567	0.582	0.57	0.524	0.657	0.616	0.678	0.663	0.661
A549	0.461	0.387	0.203	0.231	0.0933	0.64	0.44	0.394	0.181	0.074	0.224	0.245	0.209	0.168	0.0957	0.817	0.594	0.534	0.178	0.0763
EMC-BAC-2	0.744	0.754	0.634	0.674	0.537	0.755	0.782	0.765	0.732	0.482	0.974	0.95	0.827	–	0.5	0.917	0.885	0.782	0.907	0.68
NCI-H2087	0.718	0.416	0.377	0.311	0.315	0.888	0.667	0.495	0.33	0.289	0.207	0.203	0.148	0.117	0.125	0.803	0.488	0.343	0.211	0.205
NCI-H441	0.553	0.471	0.293	0.253	0.21	0.757	0.691	0.608	0.448	0.294	0.272	0.248	0.259	0.25	0.168	1.03	1.01	0.699	0.742	0.703
LXF-289	0.878	0.818	0.698	0.628	0.563	0.738	0.711	0.608	0.531	0.353	0.399	0.408	0.385	0.319	0.391	0.956	0.863	0.77	0.661	0.595
NCI-H661	0.537	0.499	0.567	0.392	0.403	1.12	1.19	1.03	1.04	1.08	0.522	0.537	0.484	0.412	0.431	0.941	1	0.794	0.751	0.62
PC-3 [JPC-3]	0.98	0.854	0.854	0.797	0.624	1.02	0.968	0.919	0.737	0.601	0.807	0.724	0.757	–	0.632	1	0.969	0.87	0.709	0.574
HCC-366	0.538	0.288	0.196	0.133	0.116	0.446	0.425	0.34	0.246	0.0629	0.29	0.307	0.276	0.273	0.206	0.875	0.765	0.768	0.49	0.228
NCI-H1651	0.969	0.763	0.888	0.835	0.659	0.898	0.804	0.828	0.743	0.729	0.559	0.689	0.48	0.422	0.333	0.773	0.687	0.702	0.652	0.671
NCI-H1355	0.737	0.605	0.375	0.433	0.352	1.01	0.869	0.645	0.655	0.47	0.346	0.353	0.309	0.347	0.34	0.993	0.725	0.519	0.606	0.488
LC-2-ad	0.871	0.716	0.729	0.502	0.381	0.47	0.463	0.422	–	0.294	0.803	0.683	0.782	0.689	0.7	0.792	0.726	0.57	0.477	0.409
